Source: patent US20260256792A1, “TREATMENT OF CHRONIC SPONTANEOUS URTICARIA BY ADMINISTERING (R)-2-[3-[4-AMINO-3-(2-FLUORO-4-PHENOXY-PHENYL)PYRAZOLO[3,4-D]PYRIMIDIN-1-YL]PIPERIDINE-1-CARBONYL]-4-METHYL-4-[4-(OXETAN-3-YL)PIPERAZIN-1-YL]PENT-2-ENENITRILE” (priority 2023, published 2026)

Tested on: moderate-to-severe chronic spontaneous urticaria (CSU)
Test: Phase 2 CSU study: urticaria control test (UCT)
Format: in vivo, human
Parameters: key to UCT, Mean / UCT, Median / UCT change from baseline, Mean / UCT change from baseline, Median: UCT total = sum of 4 item scores; low = low disease control
Text: The study comprises a 12 week, randomized, double-blind, placebo-controlled, multi-center, dose-ranging efficacy and safety phase, followed by a 40 week open label extension (OLE) phase (see FIG. 1). The study consists of three phases and an optional OLE phase. […] To this end, the UCT was proposed as a tertiary endpoint in this study. […] The dermatology life quality index (DLQI) was proposed as a tertiary endpoint in this study. […] Low scores indicate high disease activity and low disease control. The UCT total score is calculated by adding all 4 individual item scores. […] The recall period is the previous 4 weeks. Patients were to complete the UCT questionnaire during their site visit.

[1] = 400 mg QPM, Week 8, ITT population
[2] = 400 mg QPM, Week 8, omalizumab-naïve population
[3] = 400 mg QPM, Week 8, prior omalizumab use incl. incomplete responders
[4] = 400 mg QPM, Week 12, ITT population
[5] = 400 mg QPM, Week 12, omalizumab-naïve population
[6] = 400 mg QPM, Week 12, prior omalizumab use incl. incomplete responders
[7] = 400 mg TID, End of study, omalizumab-naïve population
[8] = 400 mg TID, End of study, prior omalizumab use incl. incomplete responders
[9] = 400 mg TID, Week 4, ITT population
[10] = 400 mg TID, Week 4, omalizumab-naïve population
[11] = 400 mg TID, Week 4, prior omalizumab use incl. incomplete responders
[12] = 400 mg TID, Week 8, ITT population
[13] = 400 mg TID, Week 8, omalizumab-naïve population
[14] = 400 mg TID, Week 8, prior omalizumab use incl. incomplete responders
[15] = 400 mg TID, Week 12, ITT population
[16] = 400 mg TID, Week 12, omalizumab-naïve population
[17] = 400 mg TID, Week 12, prior omalizumab use incl. incomplete responders

CC(C)(C=C(C#N)C(=O)N1CCC[C@@H](n2nc(-c3ccc(Oc4ccccc4)cc3F)c3c(N)ncnc32)C1)N1CCN(C2COC2)CC1 [rilzabrutinib, (R)-2-[3-[4-amino-3-(2-fluoro-4-phenoxy-phenyl)pyrazolo[3,4-d]pyrimidin-1-yl]piperidine-1-carbonyl]-4-methyl-4-[4-(oxetan-3-yl)piperazin-1-yl]pent-2-enenitrile]
UCT % Change difference for rilzabrutinib vs. placebo LS Mean (95% CI) [1]: −37.84 (−167.44, 91.76) % | UCT % Change from baseline LS Mean (SE) [1]: 126.71 (44.63) % | UCT Change difference for rilzabrutinib vs. placebo LS Mean (95% CI) [1]: −1.21 (−3.16, 0.74) | UCT Change from baseline LS Mean (SE) [1]: 3.16 (0.71) | UCT Post-baseline Mean (SD) [1]: 6.97 (3.84) | UCT % Change difference for rilzabrutinib vs. placebo LS Mean (95% CI) [2]: −48.49 (−177.78, 80.81) % | UCT % Change from baseline LS Mean (SE) [2]: 121.09 (44.66) % | UCT Change difference for rilzabrutinib vs. placebo LS Mean (95% CI) [2]: −1.49 (−3.43, 0.45) | UCT Change from baseline LS Mean (SE) [2]: 2.98 (0.71) | UCT Post-baseline Mean (SD) [2]: 6.84 (3.84) | UCT change from baseline, Mean [2]: 3.09 | UCT change from baseline, Median [2]: 2.00 | UCT percent change from baseline, Mean [2]: 138.85% | UCT, Median [2]: 7.00 | UCT change from baseline, Mean [3]: 6.00 | UCT change from baseline, Median [3]: 6.00 | UCT percent change from baseline, Mean [3]: 120.00% | UCT percent change from baseline, Median [3]: 120.00% | UCT % Change difference for rilzabrutinib vs. placebo LS Mean (95% CI) [4]: −100.02 (−238.68, 38.64) % | UCT % Change from baseline LS Mean (SE) [4]: 99.76 (47.53) % | UCT Change difference for rilzabrutinib vs. placebo LS Mean (95% CI) [4]: −1.82 (−3.87, 0.23) | UCT Change from baseline LS Mean (SE) [4]: 2.92 (0.76) | UCT Post-baseline Mean (SD) [4]: 6.97 (3.84) | UCT % Change difference for rilzabrutinib vs. placebo LS Mean (95% CI) [5]: −105.95 (−247.17, 35.27) % | UCT Change difference for rilzabrutinib vs. placebo LS Mean (95% CI) [5]: −1.96 (−3.99, 0.08) | UCT Change from baseline LS Mean (SE) [5]: 2.77 (0.75) | UCT Post-baseline Mean (SD) [5]: 6.88 (3.86) | UCT change from baseline, Mean [5]: 3.13 | UCT change from baseline, Median [5]: 2.00 | UCT percent change from baseline, Mean [5]: 121.74% | UCT percent change from baseline, Median [5]: 92.86% | UCT, Median [5]: 7.00 | UCT change from baseline, Mean [6]: 5.00 | UCT change from baseline, Median [6]: 5.00 | UCT percent change from baseline, Mean [6]: 100.00% | UCT percent change from baseline, Median [6]: 100.00% | UCT over baseline (400 mg TID): mild increase | UCT change from baseline, Mean [7]: 4.00 | UCT change from baseline, Median [7]: 4.00 | UCT percent change from baseline, Mean [7]: 41.03% | UCT percent change from baseline, Median [7]: 41.03% | UCT change from baseline, Mean [8]: 11.60 | UCT change from baseline, Median [8]: 13.00 | UCT percent change from baseline, Mean [8]: 7.80% | UCT percent change from baseline, Median [8]: 9.00% | UCT, Mean [8]: 4.83 | UCT, Median [8]: 4.00 | UCT % Change difference for rilzabrutinib vs. placebo LS Mean (95% CI) [9]: 122.56 (−10.01, 255.13) % | UCT % Change from baseline LS Mean (SE) [9]: 262.11 (48.72) % | UCT Change difference for rilzabrutinib vs. placebo LS Mean (95% CI) [9]: 2.34 (0.46, 4.22) | UCT Change from baseline LS Mean (SE) [9]: 5.68 (0.68) | UCT Post-baseline Mean (SD) [9]: 10.03 (4.20) | UCT % Change difference for rilzabrutinib vs. placebo LS Mean (95% CI) [10]: 124.43 (−9.74, 258.61) % | UCT % Change from baseline LS Mean (SE) [10]: 267.24 (49.68) % | UCT Change difference for rilzabrutinib vs. placebo LS Mean (95% CI) [10]: 2.23 (0.33, 4.13) | UCT Change from baseline LS Mean (SE) [10]: 5.47 (0.70) | UCT Post-baseline Mean (SD) [10]: 9.77 (4.17) | UCT change from baseline, Mean [10]: 5.63 | UCT change from baseline, Median [10]: 6.50 | UCT percent change from baseline, Mean [10]: 254.30% | UCT percent change from baseline, Median [10]: 100.00% | UCT change from baseline, Mean [11]: 7.80 | UCT change from baseline, Median [11]: 9.00 | UCT percent change from baseline, Mean [11]: 146.88% | UCT percent change from baseline, Median [11]: 143.75% | UCT, Median [11]: 13.00 | UCT % Change difference for rilzabrutinib vs. placebo LS Mean (95% CI) [12]: 108.30 (−18.30, 234.90) % | UCT % Change from baseline LS Mean (SE) [12]: 272.85 (43.60) % | UCT Change difference for rilzabrutinib vs. placebo LS Mean (95% CI) [12]: 1.43 (−0.50, 3.37) | UCT Change from baseline LS Mean (SE) [12]: 5.80 (0.69) | UCT Post-baseline Mean (SD) [12]: 10.00 (3.85) | UCT % Change difference for rilzabrutinib vs. placebo LS Mean (95% CI) [13]: 102.55 (−31.38, 236.49) % | UCT % Change from baseline LS Mean (SE) [13]: 272.13 (49.40) % | UCT Change difference for rilzabrutinib vs. placebo LS Mean (95% CI) [13]: 1.19 (−0.75, 3.12) | UCT Change from baseline LS Mean (SE) [13]: 5.66 (0.71) | UCT Post-baseline Mean (SD) [13]: 9.80 (3.86) | UCT change from baseline, Median [13]: 6.50 | UCT percent change from baseline, Mean [13]: 277.48% | UCT percent change from baseline, Median [13]: 120.83% | UCT, Median [13]: 9.50 | UCT change from baseline, Median [14]: 5.00 | UCT percent change from baseline, Mean [14]: 107.33% | UCT percent change from baseline, Median [14]: 25.00% | UCT % Change difference for rilzabrutinib vs. placebo LS Mean (95% CI) [15]: 122.43 (−16.89, 261.74) % | UCT % Change from baseline LS Mean (SE) [15]: 322.21 (47.00) % | UCT Change difference for rilzabrutinib vs. placebo LS Mean (95% CI) [15]: 1.80 (−0.20, 3.79) | UCT Change from baseline LS Mean (SE) [15]: 6.53 (0.70) | UCT Post-baseline Mean (SD) [15]: 10.69 (4.25) | UCT % Change difference for rilzabrutinib vs. placebo LS Mean (95% CI) [16]: 131.76 (−18.16, 281.68) % | UCT % Change from baseline LS Mean (SE) [16]: 329.00 (51.79) % | UCT Change difference for rilzabrutinib vs. placebo LS Mean (95% CI) [16]: 1.58 (−0.47, 3.63) | UCT Change from baseline LS Mean (SE) [16]: 6.31 (0.76) | UCT change from baseline, Median [16]: 6.00 | UCT percent change from baseline, Mean [16]: 311.71% | UCT percent change from baseline, Median [16]: 102.86% | UCT change from baseline, Mean [17]: 8.00 | UCT change from baseline, Median [17]: 9.00 | UCT percent change from baseline, Mean [17]: 156.25% | UCT percent change from baseline, Median [17]: 162.50% | patients achieving a UCT≥12 (400 mg TID, over time up to Week 12): > 20%
